Data as given in paper PMC5606850, “Acidic C-terminal domains autoregulate the RNA chaperone Hfq” (eLife, 2017).

How the values were obtained:
Target-A18 = experiment: RNA annealing kinetics (molecular beacon with Target-A18), stopped-flow fluorescence; assay type: biochemical; conditions: 50 nM molecular beacon, 100 nM Target-A18, 0–200 nM Hfq hexamer, 30 °C
Procedure: (§1) Figure 4. Shortening the CTD increases auto-inhibition by acidic residues. (A) Observed annealing rate constants for 100 nM target RNA and 50 nM molecular beacon with 0–200 nM Hfq hexamer at 30°C, measured by stopped-flow fluorescence. Black, Hfq102; red, Hfq-sCTD; cyan, Hfq65. (B) Fluorescence anisotropy assay for RNA binding and release. In stopped-flow FRET experiments, the dsRNA is released after pairing with its complementary strand ([Panja et al., 2013]; [Santiago-Frangos et al., 2016]). […] Remaining RNA was displaced from Hfq by excess ssDNA (400 nM DNA2). The averages and standard deviations for three trials are plotted for each Hfq variant. […] (D) Annealing of 5 nM ^32P-ChiX sRNA with 30 nM chiP mRNA without Hfq, or with Hfq65, Hfq102 or Hfq-sCTD, as indicated above each lane. Samples were loaded on a native polyacrylamide gel 60 min or 20 s after the components were mixed. […] (E) Fractions of free ChiX (black), ChiX·chiP dsRNA (light grey), ChiX·Hfq·chiP ternary complex (hatched) and ChiX·Hfq binary complex (dark grey) after 4 min of annealing, as analyzed by EMSA (Figure 4—figure supplement 2). […] Annealing of 100 nM Target RNA to 50 nM beacon RNA by Hfq variants was measured by stopped flow fluorescence at 30°C in 1 × TNK buffer. […] The change in fluorescence emission intensity was normalized to the maximum fluorescence within an experiment. […]

D16-FAM·R16 = experiment: anisotropy time-course of D16-FAM·R16 binding, annealing and release; assay type: biochemical; conditions: 50 nM D16-FAM, 50 nM Hfq hexamer, then 50 nM R16, TNK buffer, 30 °C, three trials
Procedure: as §1

Hfq65 = Hfq65 (Escherichia coli, UniProt P0A6X3); conditions: dsRNA product (D16-FAM·R16) versus ssRNA substrate (D16-FAM)
Procedure: Annealing kinetics of molecular beacon (50 nM) to either Target or Target-A18 RNA (100 nM) by 0–200 nM Hfq hexamer, in 1X TNK (10 mM Tris·HCl pH 7.5, 50 mM NaCl, 50 mM KCl) buffer at 30°C was measured by stopped-flow fluorescence spectroscopy as described previously ([Soper et al., 2011]; [Panja and Woodson, 2012b]). Annealing progress curves were fit to single or double-exponential rate equations.

Target and Target-U6 RNA = experiment: RNA annealing kinetics (molecular beacon with Target and Target-U6), stopped-flow fluorescence; assay type: biochemical; conditions: 16 nt Target and Target-U6 RNA; 30 °C
Procedure: as §1

ChiX sRNA and chiP mRNA = experiment: ChiX sRNA-chiP mRNA annealing, EMSA; assay type: biochemical, E. coli; conditions: 10 °C; for time to form ternary complex with ChiX and chiP: 5 nM ChiX, 30 nM chiP; for stability of ChiX·Hfq·chiP ternary complex: 33.3 nM Hfq hexamer, TNK buffer
Procedure: Figure 4. Shortening the CTD increases auto-inhibition by acidic residues. (A) Observed annealing rate constants for 100 nM target RNA and 50 nM molecular beacon with 0–200 nM Hfq hexamer at 30°C, measured by stopped-flow fluorescence. Black, Hfq102; red, Hfq-sCTD; cyan, Hfq65. (B) Fluorescence anisotropy assay for RNA binding and release. In stopped-flow FRET experiments, the dsRNA is released after pairing with its complementary strand ([Panja et al., 2013]; [Santiago-Frangos et al., 2016]). […] Remaining RNA was displaced from Hfq by excess ssDNA (400 nM DNA2). The averages and standard deviations for three trials are plotted for each Hfq variant. […] (D) Annealing of 5 nM ^32P-ChiX sRNA with 30 nM chiP mRNA without Hfq, or with Hfq65, Hfq102 or Hfq-sCTD, as indicated above each lane. Samples were loaded on a native polyacrylamide gel 60 min or 20 s after the components were mixed. Full gel images are in Figure 4—figure supplement 2. (E) Fractions of free ChiX (black), ChiX·chiP dsRNA (light grey), ChiX·Hfq·chiP ternary complex (hatched) and ChiX·Hfq binary complex (dark grey) after 4 min of annealing, as analyzed by EMSA (Figure 4—figure supplement 2). Figure 4—figure supplement 1. Effect of CTD length on RNA oligomer annealing kinetics. Annealing of 100 nM Target RNA to 50 nM beacon RNA by Hfq variants was measured by stopped flow fluorescence at 30°C in 1 × TNK buffer. (A) Target RNA annealed by Hfq65 (no CTD), Hfq102 (complete CTD) or Hfq-sCTD (shortened linker CTD). (B) Target-U6 (proximal) annealed by Hfq65, Hfq102 or Hfq-sCTD. (C) Target-A18 annealed Hfq65, Hfq102 or Hfq-sCTD. The change in fluorescence emission intensity was normalized to the maximum fluorescence within an experiment. The average of five measurements is shown per progress curve. Annealing data were also collected for 0–200 nM Hfq hexamer. All progress curves were fitted to single- or double-exponential rate equations to obtain kobs, as previously described ([Santiago-Frangos et al., 2016]). [drawing 7] Figure 4—figure supplement 2. Effect of CTD length on sRNA·mRNA annealing. EMSAs of the annealing of 5 nM ^32P-ChiX to 30 nM chiP ([Rasmussen et al., 2009]) at 10°C in 1 × TNK buffer. Reactions were done (A) without Hfq, or with 33.3 nM hexamer (B) Hfq102, (C) Hfq65 or (D) Hfq-sCTD, Control reactions with ChiX only, ChiX and chiP mRNA, ChiX and Hfq or three components were loaded at the beginning (left) and end (right) of each time course, as indicated above the lanes. In the absence of Hfq, only 20% of ChiX·chiP annealed after 30 min. In the presence of all Hfq variants, at least 50% ChiX was in a ternary complex containing ChiX·Hfq·chiP within 1 min, and annealing reached a plateau within 2 min.
To determine whether the above results on RNA oligomers apply to natural RNA substrates for Hfq, we examined the annealing of the Class II sRNA ChiX to the mRNA chiP via electrophoretic mobility shift assays (EMSAs). Because the mRNA targets of class II sRNAs interact with the rim of Hfq ([Schu et al., 2015]; [Małecka et al., 2015]), we reasoned that this sRNA-mRNA pair would be sensitive to displacement by the CTD. Low nanomolar amounts of ChiX and chiP anneal very slowly at 10°C, in the absence of Hfq (Figure 4—figure supplement 2). Whereas, Hfq102, Hfq65 and Hfq-sCTD all form a ternary complex with ChiX and chiP within 20 s (Figure 4D), reaching equilibrium in a few minutes (Figure 4—figure supplement 2). […] Less ternary complex was formed by Hfq102, and the least by Hfq-sCTD.

Hfq102 = experiment: RNA binding to Hfq102, fluorescence anisotropy; set-up: species or system E. coli; conditions: dsRNA product (D16-FAM·R16) versus ssRNA substrate (D16-FAM)

Chain of Hfq65 (P0A6X3 1-65): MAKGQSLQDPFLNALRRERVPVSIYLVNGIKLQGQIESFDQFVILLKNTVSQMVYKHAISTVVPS

What does the source list for “Hfq65: truncated E. coli Hfq variant lacking the CTD”?
annealing acceleration for Target-A18 compared to no Hfq (Target-A18): roughly 100 fold; release of annealed dsRNA (D16-FAM·R16) from Hfq (D16-FAM·R16): a large proportion of the dsRNA remained bound to Hfq65; Krel = Kd(P)/Kd(S), Hfq65 (Hfq65): 2.3; annealing rate of Hfq65 relative to Hfq102 (Target and Target-U6 RNA): about five times faster than full-length Hfq102; time to form ternary complex with ChiX and chiP (ChiX sRNA and chiP mRNA): ≤ 20 s; stability of ChiX·Hfq·chiP ternary complex (ChiX sRNA and chiP mRNA): most stable; ChiX-Hfq binary complex remaining (ChiX sRNA and chiP mRNA; after 20 s): almost no ChiX-Hfq65 binary complex remaining after 20 s

What does the source list for Hfq102: full-length E. coli Hfq?
Krel = Kd(P)/Kd(S), Hfq102 (Hfq102): 7.5; annealing acceleration for Target-A18 compared to no Hfq (Target-A18): roughly 100 fold; release of annealed dsRNA (D16-FAM·R16) from Hfq (D16-FAM·R16): most of the annealed dsRNA dissociated from Hfq102; time to form ternary complex with ChiX and chiP (ChiX sRNA and chiP mRNA): ≤ 20 s; stability of ChiX·Hfq·chiP ternary complex (ChiX sRNA and chiP mRNA): medium
